Results from PMC7699649 (Communications Biology, 2020).
Non-standard residues stand in square brackets, D forms with d. Residues, ends and D or L forms follow the SMILES beside them.

Assays:
HEK293 = type: cell-based, human; conditions: 24 h
Procedure: (§1) HeLa and HEK293 cell lines were purchased from ECACC and cultured in Eagle’s Minimum Essential Media containing glutamine, supplemented with 10% FBS and 1X non-essential amino acids. A549 and Calu-3 cell lines were purchased from ATCC. […] Cytotoxicity was measured by incubating starter cultures of cells for 24 h in a 96 well plate, gently removing the supernatant and replacing it with dilutions of peptides and controls, incubating for a further 24 h and then staining of the cells with the second-generation tetrazolium dye, XTT.

A549 = type: cell-based; conditions: 24 h
Procedure: as §1

Calu-3 = type: cell-based; conditions: 24 h
Procedure: as §1

HeLa = type: cell-based; conditions: 24 h
Procedure: as §1

human red blood cells = assay: Haemolysis assay; type: cell-based; conditions: human red blood cells in PBS, 1 h 37 °C, OD550, relative to 0.1% Triton-X-100
Procedure: Haemolysis was tested by incubating titrations of AMPs in PBS with freshly collected human red blood cells for 1 h at 37 °C. Control wells were treated with 0.1% Triton-X-100 to ensure complete lysis, or PBS-only to represent no lysis. Samples were spun down to remove non-lysed cells and the OD550 of the supernatant was measured using a Clariostar plate reader. The percentage of haemolysis was calculated as % haemolysis = (AP − AB)/(AC − AB) × 100, where AP is the absorbance value for a known peptide concentration, AC is the absorbance of the 0.1% Triton-X-100 control, AB is the absorbance of the PBS control. Data presented are averages and standard error from three biological replicate experiments.

EMRSA-15 = assay: 1H HR-MAS NMR metabolomics of bacterial pellets; type: cell-based, Staphylococcus aureus; conditions: EMRSA-15 in MHB, sub-inhibitory challenge v unchallenged; fold change, 1H HR-MAS NMR of pellets
Procedure: S. aureus EMRSA-15 and P. aeruginosa RP73 were streaked on Mueller Hinton agar plates and RPMI (supplemented with 5% FBS) agar plates and incubated at 37 °C overnight or until single colonies formed. […] Cultures were incubated overnight at 37 °C without shaking and pelleted by centrifugation at 4 °C. The supernatant was removed and filtered separately for spent media analysis, the pellet was briefly washed three times with phosphate buffered saline (PBS). The pellets were frozen in liquid nitrogen and lyophilised overnight in an Alpha 1–2 LD plus freeze dryer (Martin Christ, Germany) and stored at −20 °C until required. Samples were transferred into HR-MAS inserts for use in 4 mm Bruker MAS rotor and resuspended in 30 μl of D2O containing 3-(Trimethylsilyl)propionic-2,2,3,3-D4 acid sodium salt (TMSP-2,2,3,3-D4). The removed supernatant was filtered through 0.2 μm filters and pH adjusted to within 0.3 pH units within the same sample set. The samples were supplemented with 10% D2O containing TMSP-2,2,3,3-D4 and loaded into 5.0 mm NMR tubes.
NMR spectra were collected at 600 MHz for ^1H on a Bruker Avance II spectrometer (Bruker Biospin, Coventry, UK) with a 4 mm HR-MAS probe at 310 K while spinning at 5 kHz. ^1H NMR spectra were acquired using a Carr-Purcell Meiboom-Gill pre-saturation (cpmgpr1d) pulse sequence with a spectrum width of 16.0 ppm and 9615 data points using 64 transients. Free induction decay was multiplied by an exponential function with 0.293 Hz line broadening. 2D ^1H–^1H correlation spectroscopy (COSY) and ^1H–^13C Heteronuclear Single Quantum Correlation (HSQC) experiments were performed on representative datasets using standard Bruker settings.
The spectra were Fourier transformed automatically using standard Bruker commands and manually phased and baseline corrected in Bruker TopSpin 4.0 (Bruker Biospin, Coventry, UK). Spectral pre-processing, cross-validation and multivariate analysis were carried out using the in-house programme developed by Dr Louic Vermeer and MVAPACK, an opensource Octave library for NMR metabolomic data processing and analysis. Pre-processing modifies NMR spectra and reduces the variances and influences which are not of interest and may interfere with data analysis, for example, residual water peak or noise and the TSP reference peak. Initially a principle component analysis was carried out to identify clustering spectra and potential outliers in the data, due to e.g. poor baseline. Data were then subject to probabilistic quotient normalisation before binning and alignment. Orthogonal Projections to Latent Structures Discriminant Analysis analyses were conducted to establish the quality of binary comparisons of the metabolomic data (Supplementary Table 4). […] The Mann–Whitney U test was used to compare means and associated p values were false discovery rate adjusted using the Benjamini-Hochberg method (α = 0.05). Box plots were generated using changes in normalised intensity for each metabolite and significant differences between challenges and controls were determined using a one-way ANOVA. Volcano plots and box plots were generated using in-house software developed for Jupyter Notepad using Python 3.7.0. Metabolites were assigned using the databanks: Chenomx NMR suite software (Chenomx Inc., Canada), Human Metabolome Database, BMRB, E. coli Metabolome Database and AOCS lipid library; and a comparison of chemical shifts to the literature, which was confirmed using 2D NMR spectra. Annotated spectra can be found in the supplementary materials (Supplementary Fig. 15). Metaboanalyst and KEGG were later used to identify key pathways that may be affected by these metabolites.

[1] = Murine EMRSA-15 lung infection model: body weight; type: in vivo, C57Bl6J mice; conditions: cumulative 15 or 1.5 mg/kg/48 h D-pleurocidin-KR; 600 mg/kg vancomycin; i.v.
BAL cells = assay: Murine EMRSA-15 lung infection model: BAL total and differential cell count; type: in vivo, C57Bl6J mice; conditions: 48 h
Procedure: Using the recently developed method[65], an overnight culture of EMRSA-15 was prepared in tryptic soy broth (TSB). EMRSA-15 was cultured in TSB overnight at 37 °C, adjusted to a starting OD600 of 0.025, and grown for additional 4 h for agar beads preparation. EMRSA-15 was embedded into agar beads by mixing the overnight culture with molten tryptic soy agar, which was then spun into warmed mineral oil. The preparation was cooled and centrifuged at 2700 × g, the remaining oil was eliminated, and the beads were washed in sterile PBS. The CFU content of the beads slurry was subsequently quantified on TSA plates and the beads slurry then diluted to 2 × 10^7 CFU/ml in sterile PBS to deliver a final dose of 1 × 10^6 CFU/mouse. Animal work was performed in accordance with the Animals (Scientific Procedures) Act of 1986 (United Kingdom) and 2012 revisions with local ethical approval of King’s College London. On day 0, male C57Bl6J mice (8–10 weeks, Charles River) were anaesthetised under Isoflurane and 50 µl inoculum of EMRSA-15 embedded in agar beads (10^6 CFU/mouse) was instilled directly into the respiratory tract via oropharyngeal dosing (o.a.). Sham control mice were inoculated with sterile PBS agar beads. […] Body weight was measured daily, and animals monitored at regular intervals for signs of pain and distress. After 48 h of pulmonary infection, animals were terminally euthanized using 25% urethane via intra-peritoneal injection. CFUs were quantified in lung homogenates. Lung homogenates were then centrifuged at 14000 rpm for 30 min at 4 °C and the supernatants were stored at −80 °C for future analysis. For BAL fluid collection and analysis (total and differential cell count), a 22-gauge catheter was inserted into the trachea and BAL was recovered by instillation of 0.5 ml of sterile PBS three times and total cells counts were performed by adding Turks stain in a 1:1 ratio. BAL fluid was then centrifuged, and supernatants were stored at −20 °C. Total levels of TNFα, IL-6, KC and MCP-1 were quantified from BAL fluid collected from all animals and measured by ELISA according to the manufacturer protocol (R&D Systems UK). Concentrations of all mediators were then normalised to total protein content of BAL fluid quantified via bicinchoninic acid total protein assays performed to manufacturers protocols (Thermofisher Scientific). […] Statistical analysis was by one-way ANOVA with Dunnett’s multiple comparisons test.

TNFα = assay: Murine EMRSA-15 lung infection model: BAL cytokine ELISA; type: in vivo, C57Bl6J mice; conditions: vancomycin or D-pleurocidin-KR i.v., 48 h
IL-6 = assay: as above; type: in vivo, C57Bl6J mice; conditions: 600 mg/kg vancomycin or D-pleurocidin-KR (also lowest dose 0.15 mg/kg) i.v., 48 h
KC = assay: as above; type: in vivo, C57Bl6J mice; conditions: 600 mg/kg vancomycin or the two higher D-pleurocidin-KR doses (15, 1.5 mg/kg) i.v., 48 h
MCP-1 = assay: as above; type: in vivo, C57Bl6J mice; conditions: vancomycin or D-pleurocidin-KR i.v., 48 h
S. aureus USA300 = conditions: 200 mg/kg vancomycin i.p.; cited from earlier work

Row | Structure (SMILES) | Toxicity HEK293 (EC50 / IC50) (HEK293) | Toxicity A549 (EC50 / IC50) (A549) | Toxicity Calu-3 (EC50 / IC50) (Calu-3) | Toxicity HeLa (EC50 / IC50) (HeLa) | fc 2-aminobutyrate (EMRSA-15) | fc Acetate (EMRSA-15) | fc Acetyl-Phosphocholine (1) (EMRSA-15) | fc Acetyl-Phosphocholine (2) (EMRSA-15) | fc Adenosine (EMRSA-15) | fc Alanine (EMRSA-15) | fc Aspartate (EMRSA-15) | fc Betaine (EMRSA-15) | fc Choline (EMRSA-15) | fc Citrulline (EMRSA-15) | fc Glutamate (EMRSA-15) | fc Glycerol (lipid headgroup) (1) (EMRSA-15) | fc Glycerol (lipid headgroup) (2) (EMRSA-15) | fc Glycerol (lipid headgroup) (3) (EMRSA-15) | fc Isoleucine (EMRSA-15) | fc Lactate (EMRSA-15) | other results
1 | CC(C)C[C@@H](NC(=O)[C@@H](Cc1ccc(O)cc1)NC(=O)[C@@H](Cc1c[nH]cn1)NC(=O)[C@H](NC(=O)[C@@H](CC(C)C)NC(=O)[C@@H](C)NC(=O)[C@@H](C)NC(=O)[C@@H](CCCCN)NC(=O)CNC(=O)[C@@H](C)NC(=O)[C@@H](Cc1c[nH]cn1)NC(=O)[C@@H](CCCCN)NC(=O)CNC(=O)[C@@H](C)NC(=O)[C@@H](Cc1c[nH]cn1)NC(=O)[C@@H](C)NC(=O)[C@@H](C)NC(=O)[C@@H](CCCCN)NC(=O)[C@@H](CCCCN)NC(=O)[C@@H](Cc1ccccc1)NC(=O)[C@@H](Cc1ccccc1)NC(=O)[C@@H](CO)NC(=O)CNC(=O)[C@@H](Cc1c[nH]c2ccccc12)NC(=O)CN)[C@H](C)O)C(N)=O [D-pleurocidin-VA] (H-G[dW]G[dS][dF][dF][dK][dK][dA][dA][dH][dA]G[dK][dH][dA]G[dK][dA][dA][dL][dT][dH][dY][dL]-NH2; N-terminus assumed) | (217.3 ± 46.5) µg/ml | (>250) µg/ml | (>250) µg/ml | (198.2 ± 10.2) µg/ml | 0.991 | 1.149 | 0.9923 | 1.003 | 1.125 | 0.9478 | 0.8483 | 0.9779 | 1.051 | 0.9363 | 0.896 | 0.9028 | 1.031 | 0.9777 | 1.148 | 1.293 | haemolysis at the highest concentration tested 400 µg/ml (human red blood cells): Neither pleurocidin-VA nor D-pleurocidin-VA induce detectable haemolysis; fc Leucine (EMRSA-15): 1.172; fc Lipid -CH=CH- (EMRSA-15): 1.134; fc Lipid-CH₃ (EMRSA-15): 1.116; fc Lysine (EMRSA-15): 1.027; fc N-acetyl-x (1) (EMRSA-15): 0.8941; fc N-acetyl-x (2) (EMRSA-15): 1.036; fc N-acetyl-x (3) (EMRSA-15): 0.9489; fc Proline (EMRSA-15): 1.056; fc Succinate (EMRSA-15): 0.8785; fc Unassigned 1.47ppm (EMRSA-15): 0.8868; fc Unassigned 3.4802ppm (EMRSA-15): 0.9293; fc Unassigned 8.55ppm (EMRSA-15): 0.9285; fc Uracil (EMRSA-15): 1.738; fc Valine (EMRSA-15): 1.029; fc ᴅ-alanine (LTA) (EMRSA-15): 1.157
2 | CC(C)C[C@@H](NC(=O)[C@@H](Cc1ccc(O)cc1)NC(=O)[C@@H](Cc1c[nH]cn1)NC(=O)[C@H](NC(=O)[C@@H](CC(C)C)NC(=O)[C@@H](C)NC(=O)[C@@H](C)NC(=O)[C@@H](CCCCN)NC(=O)CNC(=O)[C@H](NC(=O)[C@@H](Cc1c[nH]cn1)NC(=O)[C@@H](CCCCN)NC(=O)CNC(=O)[C@H](NC(=O)[C@@H](Cc1c[nH]cn1)NC(=O)[C@@H](C)NC(=O)[C@@H](C)NC(=O)[C@@H](CCCCN)NC(=O)[C@@H](CCCCN)NC(=O)[C@@H](Cc1ccccc1)NC(=O)[C@@H](Cc1ccccc1)NC(=O)[C@@H](CO)NC(=O)CNC(=O)[C@@H](Cc1c[nH]c2ccccc12)NC(=O)CN)C(C)C)C(C)C)[C@H](C)O)C(N)=O [D-pleurocidin] (H-G[dW]G[dS][dF][dF][dK][dK][dA][dA][dH][dV]G[dK][dH][dV]G[dK][dA][dA][dL][dT][dH][dY][dL]-NH2; N-terminus assumed) | (61.4 ± 3.9) µg/ml | (79.3 ± 7.2) µg/ml | (41.9 ± 1.8) µg/ml | (47.1 ± 2.1) µg/ml | 1.089 | 7.742 | 0.8504 | 0.9675 | 0.737 | 0.9988 | 0.9699 | 1.128 | 0.8079 | 0.7893 | 0.9017 | 1.108 | 0.9648 | 0.9439 | 0.8635 | 0.8326 | concentration at which 10% haemolysis is achieved (human red blood cells; three biological replicates): 240 µg/mL; fc Leucine (EMRSA-15): 0.8297; fc Lipid -CH=CH- (EMRSA-15): 1.03; fc Lipid-CH₃ (EMRSA-15): 0.9623; fc Lysine (EMRSA-15): 0.8706; fc N-acetyl-x (1) (EMRSA-15): 1.103; fc N-acetyl-x (2) (EMRSA-15): 1.06; fc N-acetyl-x (3) (EMRSA-15): 0.8909; fc Proline (EMRSA-15): 0.991; fc Succinate (EMRSA-15): 0.6241; fc Unassigned 1.47ppm (EMRSA-15): 0.9642; fc Unassigned 3.4802ppm (EMRSA-15): 1.011; fc Unassigned 8.55ppm (EMRSA-15): 5.383; fc Uracil (EMRSA-15): 0.4342; fc Valine (EMRSA-15): 0.8108; fc ᴅ-alanine (LTA) (EMRSA-15): 1.199
3 | CN[C@H](CC(C)C)C(=O)N[C@H]1C(=O)N[C@@H](CC(N)=O)C(=O)N[C@H]2C(=O)N[C@H]3C(=O)N[C@H](C(=O)N[C@H](C(=O)O)c4cc(O)cc(O)c4-c4cc3ccc4O)[C@H](O)c3ccc(c(Cl)c3)Oc3cc2cc(c3O[C@@H]2O[C@H](CO)[C@@H](O)[C@H](O)[C@H]2O[C@H]2C[C@](C)(N)[C@H](O)[C@H](C)O2)Oc2ccc(cc2Cl)[C@H]1O [vancomycin, reference compound] |  |  |  |  |  |  |  |  |  |  |  |  |  |  |  |  |  |  |  |  | weight loss over the 48-h infection period [1]: mitigates this weight loss; neutrophil recruitment (BAL) (BAL cells; 600 mg/kg vancomycin or D-pleurocidin-KR (also lowest dose 0.15 mg/kg) i.v.): reduced; macrophage numbers in BAL (BAL cells; vancomycin or D-pleurocidin-KR i.v.): No effects; levels of TNFα in BAL (TNFα): No effects; IL-6 in BAL (IL-6): reduced; KC levels in BAL (KC): fall to that of the uninfected group; levels of MCP-1 in BAL (MCP-1): No effects; reduction in S. aureus USA300 CFU (S. aureus USA300): comparable reduction
